Patent US20070270392A1, “Use of a Cyclopentenone Prostaglandin for Delaying the Onset and/or Preventing the Continuation of Labour” (Imperial College Innovations Limited, priority 2003, published 2007)

Columns and labels:
[1] = system: NF-κB; test: EMSA of NF-κB DNA binding in nuclear extracts of treated amnion cells; format: cell-based, human; conditions: L− and L+ amnion cells, treated 2 h, IL-1β stimulation 15 min
Procedure: Electro-mobility shift assay (EMSA) analysis of NF-κB DNA binding in nuclear protein extracts from (A) myometrial cells, (B) L+amnion cells, and (C) L− amnion cells treated with 15dPGJ2 or vehicle for 2 h+/−IL-1b stimulation (15 min). Consensus kB probe used to assess NF-κB DNA binding, and consensus Oct-1 probe used as control.
EMSA analysis of nuclear protein extracts from amnion cells treated with 15dPGJ2+/−GW9662 or vehicle for 2 h followed by IL-1β stimulation (15 min). Consensus kB probe used to assess NFκB DNA binding, consensus Oct-1 probe used as control.
EMSA analysis of nuclear protein extracts from (A) myometrial cells, and (B) amnion cells treated with PGA1 or vehicle for 2 h followed by IL-1b stimulation (15 min). Consensus κB probe used to assess NFκB DNA binding, consensus Oct-1 probe used as control. For supershift analysis, extracts were preincubated with antibodies against p50 or p65.
EMSA analysis of nuclear protein extracts from (A) L− amnion cells and (B) myometrial cells treated with vehicle, PGE2 or IL-1β. Consensus κB probe used.
(§1) Placentae were obtained from patients at term either at elective Caesarean section prior to labour (L−) or following spontaneous labour onset and vaginal delivery (L+). Amnion cells were prepared as described in Bennett et al., (1989). Briefly, the amnion was separated from the placenta, washed 3× in PBS, cut into strips, and incubated in 0.51 mM EDTA in PBS for 15 min. The strips were washed in PBS 2× and digested with 2.5 mg/ml dispase in serum-free DMEM for 35 min at 37° C. The amnion was then shaken vigorously in DMEM, 10% FCS to dissociate the cells, the remaining strips discarded, and the cell suspension pelleted at 175 g for 10 min and cultured in DMEM, 10% FCS (Sigma), 1% L-glutamine, 1% penicillin-streptomycin.
Nuclear and cytosolic protein extracts were obtained from cultured amnion cells as described by Schreiber et al (1989). For nuclear/cytosolic fractionation, confluent cell monolayers were scraped and lysed using a buffer containing 10 mM HEPES, 10 mM KCl, 0.1 mM EDTA, 0.1 mM EGTA, 2 mM DTT, 1% (v/v) NP-40 and complete protease inhibitor tablets (CPIs, Roche), diluted to manufacturer's instructions. Cell lysates were incubated on ice for 10 min and NP-40 added to a final concentration of 1% (v/v). Lysates were vortexed for 10 secs and centrifuged for 30 secs at 4° C., 12000 g. The supernatants were retained as the cytosolic protein extracts. The pellets were resuspended in buffer containing 10 mM HEPES, 10 mM KCl, 0.1 mM EDTA, 0.1 mM EGTA, 2 mM DTT, 400 mM NaCl, 1% NP-40 (v/v) and CPIs. Samples were shaken vigorously for 15 min in an ice bath. The nuclear protein extracts were obtained in the supernatant following a 5 min centrifugation at 4° C., 12000 g.
Sense and antisense strands (175 nmole/ml each) were incubated in annealing buffer (10 mM Tris-HCl pH7.5, 100 mM NaCl, 1 mM EDTA) for 10 min at 65° C., and allowed to cool at room temperature for 2 h. 3.5 pmole double-stranded oligonucleotides were end-labelled with 0.37 MBq ^32P(γATP) by incubating for 30 min at 37° C. with T4 polynucleotide kinase. Labelled oligonucleotides were recovered by centrifugation at […] for 2 min through MicroSpin G-25 or G-50 sephadex columns (Amersham Biosciences). […]

[2] = system: NF-κB; test: NF-κB-dependent luciferase reporter (κB.BG.Luc) in amnion cells; format: cell-based, human; conditions: L− and L+ amnion cells, treated 2 h, IL-1β 1 ng/ml 6 h
Procedure: . Values are normalised for b-gal reporter activity.
as §1
pGL3.6 κB.BG.luc was the reporter construct used to assess NF-κB-mediated transcription, while the mutant pGL3.6 κBmut.luc and empty pGL3.BG.luc were used as controls (Schwarzer et al., 1998).
pGL3.6 κB.BG.luc: a NF-κB-dependent reporter construct with 6 copies of the NF-κB binding site. It contains two tandem repeats of the sequence 5′-GGG GAC TTT C CC TGGGGACTTTCCCTGGGGACTTTCCC-3′, which contains three copies of the decameric NF-κB binding site (underlined) upstream of a minimal β-globin promoter driving a luciferase gene. […]

Row | SMILES | IL-1β-induced NF-κB DNA binding [1] | IL-1-induced NF-κB transcriptional activity [2]
1 | CCCCCC=CC=C1C(=O)C=C[C@@H]1CC=CCCCC(=O)O [15d-PGJ2, 15-deoxy-Δ^12,14prostaglandin J2] | inhibited | inhibited
2 | CCCCC[C@H](O)/C=C/[C@H]1C=CC(=O)[C@@H]1CCCCCCC(=O)O [PGA1, prostaglandin A1] | able to inhibit | inhibited
